Article PMC4255673 (Analytical Chemistry, 2014)
Entries after “also recorded” stand apart in the source; their conditions may differ. Bridges are numbered along the chain shown (N, C = ends).

Assays:
KDM4C [1] = test: In vitro TR-FRET demethylase assay / KDM4C inhibition; assay type: biochemical; settings: nonbinding control peptide; assay not described
KDM4C [2] = test: HDX-MS of KDM4C ± peptide; assay type: binding
KDM4C [3] = settings: cited from earlier work; for inhibition constants: TR-FRET demethylase assay; for apparent increase in activity of second generation peptides over initial leads: vs initial peptide leads
KDM4C [4] = settings: cell-based assay; cited from earlier work

| Substance | KDM4C inhibition (control peptide) (KDM4C [1]) | isotopic distribution / EX1 kinetics in site D (331–344) (KDM4C [2]; KDM4C 331–344, HDX time course, bimodal fit with HX-Express, peptide 160 μM) | HDX of helix 359–370 (KDM4C [2]; KDM4C 359–370, Figure S1 / data not shown) | inhibition constants (KDM4C [3]) | apparent increase in activity of second generation peptides over initial leads (KDM4C [3]) [fold] | inhibitory activity in cells (KDM4C [4]) |
| --- | --- | --- | --- | --- | --- | --- |
| H-ACKWMDDGYCGGG-NH2 (disulfide 2-10 (inferred)) [Peptide 4] | noninhibitory | – | – | – | – | – |
| H-ACYTRNMNQC-NH2 (also: sidechain bridge or staple (positions not given here)) [Peptide 2] | – | confirmed the occurrence of EX1 kinetics | the perturbation in HDX along site 359–370 was only significant after 10 min; also recorded: Helix 359–370 shows reduced HDX (significant only after 10 min; see Figure S1, Supporting Information) but no EX1 exchange kinetics | in the high μM range | 10 | none of the peptides showed any inhibitory activity |
| H-CKWMADGYC-NH2 (disulfide 1-9 (inferred)) [Peptide 3] | – | – | – | in the high μM range | 10 | none of the peptides showed any inhibitory activity |
